From the supplement of paper PMC10307832

Key:
Assay in all cases: relative viability (nuclei count vs DMSO), 5 days (fraction); higher = more cells survive
[1] = compound: CCn1c(-c2nonc2N)nc2cnc(Oc3cccc(NC(=O)c4ccc(OCCN5CCOCC5)cc4)c3)cc21 + O=C(CCCCCCC(=O)Nc1ccccc1)NO [Vorinostat] (partner 1 µM)
How it was run: (§1)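 A single step with final 0.05% Triton X-100, 1% formaldehyde and 1 ug/ml Hoechst fixed the cells and stained nuclei 5 days after treatment. Lung cancer cell lines in 1536-well plates had been treated by pin tool the day after seeding with one drug alone or a fixed anchor-drug dose plus five library-drug doses (not always all listed) in √10 steps, and nuclei were counted on 4× images. Relative viability is the ratio of nuclei in treated wells to nuclei in vehicle wells, taken as the median of duplicate plates.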

[2] = compound: CCn1c(-c2nonc2N)nc2cnc(Oc3cccc(NC(=O)c4ccc(OCCN5CCOCC5)cc4)c3)cc21 + C[C@]1(O)C[C@@H](c2nc(-c3ccc4ccc(-c5ccccc5)nc4c3)c3c(N)nccn32)C1 [Linsitinib] (partner 1 µM)
How it was run: as §1

[3] = compound: CCn1c(-c2nonc2N)nc2cnc(Oc3cccc(NC(=O)c4ccc(OCCN5CCOCC5)cc4)c3)cc21 + CC(=O)c1c(C)c2cnc(Nc3ccc(N4CCNCC4)cn3)nc2n(C2CCCC2)c1=O [Palbociclib] (partner 0.5 µM)
How it was run: as §1

Mirin + Linsitinib = compound: N=C1NC(=O)/C(=C/c2ccc(O)cc2)S1 [Mirin] + C[C@]1(O)C[C@@H](c2nc(-c3ccc4ccc(-c5ccccc5)nc4c3)c3c(N)nccn32)C1 [Linsitinib] (partner 1 µM)
How it was run: as §1

| Cell Line | relative viability ([1]; first compound 0.04 µM) | relative viability ([1]; first compound 0.1265 µM) | relative viability ([1]; first compound 0.4 µM) | relative viability ([1]; first compound 1.265 µM) | relative viability ([1]; first compound 4 µM) | relative viability ([2]; first compound 0.04 µM) | relative viability ([2]; first compound 0.1265 µM) | relative viability ([2]; first compound 0.4 µM) | relative viability ([2]; first compound 1.265 µM) | relative viability ([2]; first compound 4 µM) | relative viability ([3]; first compound 0.04 µM) | relative viability ([3]; first compound 0.1265 µM) | relative viability ([3]; first compound 0.4 µM) | relative viability ([3]; first compound 1.265 µM) | relative viability ([3]; first compound 4 µM) | relative viability (Mirin + Linsitinib; first compound 0.25 µM) | relative viability (Mirin + Linsitinib; first compound 0.7906 µM) | relative viability (Mirin + Linsitinib; first compound 2.5 µM) | relative viability (Mirin + Linsitinib; first compound 7.906 µM) | relative viability (Mirin + Linsitinib; first compound 25 µM) |
| --- | --- | --- | --- | --- | --- | --- | --- | --- | --- | --- | --- | --- | --- | --- | --- | --- | --- | --- | --- | --- |
| NCI-H1437 | 0.88 | 0.93 | 0.903 | 0.682 | 0.512 | 1.31 | 1 | 1.05 | 0.742 | 0.549 | 0.355 | 0.367 | 0.389 | 0.279 | 0.331 | 1.09 | 1.01 | 1.07 | 0.784 | 0.33 |
| SK-MES-1 | 1.22 | 0.968 | 0.868 | 0.819 | 0.597 | 1.24 | 0.952 | 0.896 | 0.774 | 0.823 | 0.353 | 0.301 | 0.284 | 0.303 | 0.309 | 1.06 | 1.22 | 1.18 | 1.07 | 1.26 |
| NCI-H3122 | 1.1 | 0.971 | 0.671 | 0.781 | 0.61 | 1.04 | 0.985 | 0.991 | 1 | 0.934 | 0.209 | 0.182 | 0.184 | 0.19 | 0.19 | 0.994 | 1.04 | 1.06 | 1.15 | 1.05 |
| NCI-H2023 | 1.02 | 0.675 | 0.669 | 0.429 | 0.334 | 0.802 | 0.694 | 0.71 | 0.566 | 0.482 | 0.415 | 0.392 | 0.337 | 0.215 | 0.202 | 0.709 | 0.674 | 0.653 | 0.684 | 0.522 |
| PC-14 | 0.912 | 0.612 | 0.64 | 0.554 | 0.62 | 1 | 0.901 | 0.878 | 0.716 | 0.648 | 0.578 | 0.432 | 0.466 | 0.486 | 0.414 | 0.929 | 0.959 | 1.03 | 0.97 | 1.08 |
| NCI-H727 | – | 1.23 | 1.05 | 0.961 | 1.36 | 0.265 | 0.379 | 0.406 | 0.506 | 0.268 | – | 0.63 | 0.599 | 0.657 | 0.622 | 0.328 | 0.39 | 0.3 | 0.383 | 0.333 |
| NCI-H1734 | 0.937 | 0.838 | 0.586 | 0.412 | 0.399 | 1.06 | 0.796 | 0.807 | 0.648 | 0.485 | 0.335 | 0.365 | 0.293 | 0.319 | 0.267 | 0.851 | 0.852 | 0.875 | 0.739 | 0.765 |
| NCI-H647 | 0.894 | 0.638 | 0.57 | 0.378 | 0.276 | 0.993 | 1 | 1.01 | 0.729 | 0.558 | 0.494 | 0.297 | 0.317 | 0.235 | 0.297 | 1.37 | 1.44 | 1.19 | 1 | 0.63 |
